As a reminder, the viability is a read-out of living cells in per cent, often relative to untreated cells.

The source of these data is patent publication US10105357B2, “Indication of antibiotic drugs for preparation of cancer inhibition pharmaceutical composition” (LAUNX BIOMEDICAL CO., LTD., priority 2014, dated 2018).

The structures appear in SMILES notation. Like-named read-outs stand apart in the source and are kept apart here.

Data set [1] has as its system HL-60 (Acute Promyelocytic Leukemia). As to the kind of experiment: Cell viability analysis, leukemia HL-60. It is filed as cell-based, human. As to conditions: Homo sapiens.
The test system of data set [2] is AGS (Gastric Adenocarcinoma). As to the kind of experiment: Cell viability analysis, gastric cancer AGS. As to conditions: Homo sapiens. Type of data set: cell-based, human.
Data set [3] concerns HI650 (Lung Adenocarcinoma). As to the kind of experiment: Cell viability analysis, lung cancer HI650. It is filed as cell-based, human. The conditions noted are these: Homo sapiens.
Data set [4] relates to LoVo (Colorectal Adenocarcinoma). As to the kind of experiment: Cell viability analysis, colon cancer LoVo. Type of data set: cell-based, human. As to conditions: Homo sapiens, LoVo.
Data set [5] concerns PC3 (p53−) (Prostate Adenocarcinoma). As to the kind of experiment: Cell viability analysis, prostate cancer PC3. Type of data set: cell-based, human. As to conditions: Homo sapiens.
The test system of data set [6] is HepG2 (Hepatocellular Carcinoma). As to the kind of experiment: Cell viability analysis, hepatic cancer HepG2. It is filed as cell-based, human. The conditions noted are these: Homo sapiens, HepG2, 72 h.
Data set [7] has as its system HCT116 (p53+) (Colorectal Carcinoma). As to the kind of experiment: cells. As to conditions: Homo sapiens, HCT-116, 72 h, read-out: cell viability (survival rate), HCT116.
For data set [8], the system named is TSGH-8301 (Urinary Bladder Carcinoma). As to the kind of experiment: Cell viability analysis, bladder cancer TSGH-8301. It is filed as cell-based, human. The conditions noted are these: Homo sapiens.
In data set [9] the test system is HeLa (Cervix Adenocarcinoma). As to the kind of experiment: Cell viability analysis, cervical cancer HeLa. As to conditions: Homo sapiens, HeLa. Type of data set: cell-based, human.
In data set [10] the test system is A549 (Lung Adenocarcinoma). As to the kind of experiment: Cell viability analysis, lung cancer A549. The conditions noted are these: Homo sapiens. Type of data set: cell-based, human.
Data set [11] has as its system A375 (Amelanotic Melanoma). As to the kind of experiment: Cell viability analysis, skin cancer A375. Type of data set: cell-based, human. The conditions noted are these: Homo sapiens.
Data set [12] deals with MKN-45 (Gastric Adenocarcinoma). As to the kind of experiment: Cell viability analysis, gastric cancer MKN-45. The conditions noted are these: Homo sapiens. It is filed as cell-based, human.
Data set [13] concerns MCF7 (Mammary Gland, Adenocarcinoma). As to the kind of experiment: Cell viability analysis, breast cancer MCF7. Type of data set: cell-based, human. As to conditions: Homo sapiens.
Another data set concerns cancer cell lines. As to the kind of experiment: Cell viability analysis (WST-1) on cancer cell lines. Type of data set: cell-based, human. The conditions noted are these: drug 10 μM, 72 hours, WST-1; Table 3.
Data set [14] deals with BCC (basal cell carcinoma). As to the kind of experiment: Cell viability analysis, skin cancer BCC. It is filed as cell-based, human. The conditions noted are these: Homo sapiens, 72 h, read-out: The results of antibiotic drug inhibiting cancer cell lines (cell viability analysis), BCC.
Data set [15] has as its system 786-O (Renal adenocarcinoma). As to the kind of experiment: Cell viability analysis, renal cancer 786-O. It is filed as cell-based, human. As to conditions: Homo sapiens, 786-0, 72 h, read-out: The results of antibiotic drug inhibiting cancer cell lines (cell viability analysis), 786-O.
A further data set has as its system T24. As to the kind of experiment: Cell viability analysis, bladder cancer T24. The conditions noted are these: Homo sapiens, T-24, 72 h, read-out: The results of antibiotic drug inhibiting cancer cell lines (cell viability analysis), T24. Type of data set: cell-based, human.
Data set [16] relates to Hep3B (hepatocellular carcinoma). As to the kind of experiment: Cell viability analysis, hepatic cancer Hep3B. As to conditions: Homo sapiens, Hep3B, 72 h, read-out: The results of antibiotic drug inhibiting cancer cell lines (cell viability analysis), Hep3B. Type of data set: cell-based, human.
In data set [17] the test system is C-33A (Cervical carcinoma). As to the kind of experiment: Cell viability analysis, cervical cancer C-33A. Type of data set: cell-based, human. The conditions noted are these: Homo sapiens, C-33-A, 72 h, read-out: The results of antibiotic drug inhibiting cancer cell lines (cell viability analysis), C-33A.
Data set [18] deals with SAS (Tongue squamous cell carcinoma). As to the kind of experiment: Cell viability analysis, tongue cancer SAS. As to conditions: Homo sapiens, 72 h, read-out: The results of antibiotic drug inhibiting cancer cell lines (cell viability analysis), SAS. It is filed as cell-based, human.
The next data set deals with AsPC-1. As to the kind of experiment: Cell viability analysis, pancreatic cancer AsPC-1. Type of data set: cell-based, human. As to conditions: Homo sapiens, ASPC1, 72 h, read-out: The results of antibiotic drug inhibiting cancer cell lines (cell viability analysis), AsPC-1.
The test system of data set [19] is MDA-MB-231 (Mammary Gland, Adenocarcinoma). As to the kind of experiment: Cell viability analysis, breast cancer MDA-MB-231. It is filed as cell-based, human. As to conditions: Homo sapiens, MDA-MB-231, 72 h, read-out: The results of antibiotic drug inhibiting cancer cell lines (cell viability analysis), MDA-MB231.
For data set [20], the system named is HCT116 (p53+) (Colorectal Carcinoma).
The subject of a further data set is TOV-21G. As to the kind of experiment: Cell viability analysis, ovarian cancer TOV-21G. Type of data set: cell-based, human. The conditions noted are these: Homo sapiens, TOV21G, 72 h, read-out: The results of antibiotic drug inhibiting cancer cell lines (cell viability analysis), TOV-21G.
In another data set the test system is BxPC-3. As to the kind of experiment: Cell viability analysis, pancreatic cancer BxPC-3. It is filed as cell-based, human. The conditions noted are these: Homo sapiens, BXPC-3, 72 h, read-out: The results of antibiotic drug inhibiting cancer cell lines (cell viability analysis), BxPC-3.
Another data set relates to NIH: OVCAR-3. As to the kind of experiment: Cell viability analysis, ovarian cancer NIH: OVCAR-3. It is filed as cell-based, human. The conditions noted are these: Homo sapiens, OVCAR-3, 72 h, read-out: The results of antibiotic drug inhibiting cancer cell lines (cell viability analysis), NIH-OVCAR-3.
The test system of the next data set is U-2OS. As to the kind of experiment: Cell viability analysis, osteosarcoma U-2OS. Type of data set: cell-based, human. The conditions noted are these: Homo sapiens, U2OS, 72 h, read-out: The results of antibiotic drug inhibiting cancer cell lines (cell viability analysis), U2OS.
Setting [21] is: HL-60, 72 h, read-out: cell viability (survival rate), HL-60, drug 10 μM, 72 hours, WST-1, OD450 nm.
Where [22] appears, read: 72 h, read-out: cell viability (survival rate), AGS, drug 10 μM, 72 hours, WST-1, OD450 nm.
The mark [23] stands for this setting: NCI-H1650, 72 h, read-out: cell viability (survival rate), H1650, drug 10 μM, 72 hours, WST-1, OD450 nm.
The mark [24] stands for this setting: 72 h, read-out: cell viability (survival rate), LoVo, drug 10 μM, 72 hours, WST-1, OD450 nm.
[25] abbreviates: 72 h, read-out: cell viability (survival rate), PC3, drug 10 μM, 72 hours, WST-1, OD450 nm.
The mark [26] stands for this setting: read-out: cell viability (survival rate), HepG2, drug 10 μM, 72 hours, WST-1, OD450 nm.
Setting [27] is: 72 h, read-out: cell viability (survival rate), TSGH, drug 10 μM, 72 hours, WST-1, OD450 nm.
[28] abbreviates: A549, 72 h, read-out: cell viability (survival rate), A549, drug 10 μM, 72 hours, WST-1, OD450 nm.
The mark [29] stands for this setting: A-375, 72 h, read-out: cell viability (survival rate), A375, drug 10 μM, 72 hours, WST-1, OD450 nm.

Consider `O=c1ccc2ccccc2o1` [Coumarin], for which the viability at 10 µM worked out at 102% in data set [1] (setting [21]); 98.5% in data set [2] (setting [22]); 95.6% in [3] (setting [23]); 88.3% in data set [4] (setting [24]); 86.3% in [5] (setting [25]); 100% in data set [6] (setting [26]). For the same compound, the viability at 10 µM in [7] was found to be 93.7%; in data set [8] (setting [27]), 108%; in [9] (72 h, read-out: cell viability (survival rate), HeLa, drug 10 μM, 72 hours, WST-1, OD450 nm), 96.5%; in data set [10] (setting [28]) it was 91.8%; in data set [11] (setting [29]), 157%.
In the case of `c1ccc2c(c1)sc1ccccc12` [Dibenzothiophene], the viability at 10 µM was 110% in [1] (HL-60, drug 10 μM, 72 hours, WST-1, OD450 nm, read-out: cell viability (survival rate), HL-60); 59.2% in [2] (drug 10 μM, 72 hours, WST-1, OD450 nm, read-out: cell viability (survival rate), AGS); 76.1% in data set [3] (NCI-H1650, drug 10 μM, 72 hours, WST-1, OD450 nm, read-out: cell viability (survival rate), H1650); 79.7% in data set [4] (drug 10 μM, 72 hours, WST-1, OD450 nm, read-out: cell viability (survival rate), LoVo); 80.2% in data set [5] (drug 10 μM, 72 hours, WST-1, OD450 nm, read-out: cell viability (survival rate), PC3); 52.7% in [7]. In addition, the viability at 10 µM is 88.2% in data set [8] (drug 10 μM, 72 hours, WST-1, OD450 nm, read-out: cell viability (survival rate), TSGH); 92.1% in [12] (MKN-45, drug 10 μM, 72 hours, WST-1, OD450 nm, read-out: cell viability (survival rate), MKN-45); 94.6% in data set [9] (drug 10 μM, 72 hours, WST-1, OD450 nm, read-out: cell viability (survival rate), HeLa); 71.4% in data set [13] (MCF7, drug 10 μM, 72 hours, WST-1, OD450 nm, read-out: cell viability (survival rate), MCF7); 62.3% in data set [10] (A549, drug 10 μM, 72 hours, WST-1, OD450 nm, read-out: cell viability (survival rate), A549); 70.6% in [11] (A-375, drug 10 μM, 72 hours, WST-1, OD450 nm, read-out: cell viability (survival rate), A375).
Turning to `CN(C)c1cc(NC(=O)CNC(C)(C)C)c(O)c2c1C[C@H]1C[C@H]3[C@H](N(C)C)C(O)=C(C(N)=O)C(=O)[C@@]3(O)C(O)=C1C2=O` [Tigecycline], the “inhibition effect on different cancer cell lines” value in the data set on cancer cell lines is recorded as “significant inhibition effect”. The viability at 10 µM worked out at 79.9% in data set [14]; 97.6% in [1] (setting [21]); 100% in data set [15]; 109% in the data set on T24; 106% in data set [16]; 100% in [17]. Moreover, the viability at 10 µM in data set [18] is 66.2%; with AsPC-1, 86.5%; in data set [19], 93.4%; in [2] (72 h, read-out: The results of antibiotic drug inhibiting cancer cell lines (cell viability analysis), AGS, repeated experiment), 90.6%; in data set [2] (setting [22]), 49.4%; in [3] (NCI-H1650, 72 h, read-out: The results of antibiotic drug inhibiting cancer cell lines (cell viability analysis), H1650, H1650, repeated experiment), 66.9%. The viability at 10 µM in data set [3] (setting [23]) stood at 53.1%; with TOV-21G, 67.1%; in data set [4] (72 h, read-out: The results of antibiotic drug inhibiting cancer cell lines (cell viability analysis), LoVo, repeated experiment) it was 96%; in [4] (setting [24]), 82.4%; in the data set with BxPC-3, 75.6%; in [5] (72 h, read-out: The results of antibiotic drug inhibiting cancer cell lines (cell viability analysis), PC-3, PC-3, repeated experiment) it was 112%. Moreover, the viability at 10 µM in data set [5] (setting [25]) worked out at 83%; in [6] (read-out: The results of antibiotic drug inhibiting cancer cell lines (cell viability analysis), HepG2, HepG2, repeated experiment), 97.2%; in data set [6] (setting [26]), 102%; in data set [8] (72 h, TSGH-8301, repeated experiment, read-out: The results of antibiotic drug inhibiting cancer cell lines (cell viability analysis), TSGH-8301), 113%; in [8] (setting [27]) it was 98.5%; in [12] (MKN-45, 72 h, read-out: The results of antibiotic drug inhibiting cancer cell lines (cell viability analysis), MKN-45, MKN-45, repeated experiment), 114%. Besides, the viability at 10 µM in data set [12] (MKN-45, 72 h, read-out: cell viability (survival rate), MKN-45, drug 10 μM, 72 hours, WST-1, OD450 nm) amounted to 89.2%; in data set [9] (72 h, read-out: The results of antibiotic drug inhibiting cancer cell lines (cell viability analysis), HeLa, repeated experiment), 102%; in [13] (MCF7, 72 h, read-out: The results of antibiotic drug inhibiting cancer cell lines (cell viability analysis), MCF-7, MCF-7, repeated experiment), 79.1%; in data set [13] (MCF7, 72 h, read-out: cell viability (survival rate), MCF7, drug 10 μM, 72 hours, WST-1, OD450 nm), 71.1%; in the data set with NIH: OVCAR-3, 91.1%; in data set [10] (A549, 72 h, read-out: The results of antibiotic drug inhibiting cancer cell lines (cell viability analysis), A549, A549, repeated experiment) it was 91.5%. Besides, the viability at 10 µM turned out to be 55.9% in [10] (setting [28]); 84% in the data set on U-2OS; 83.2% in data set [11] (A-375, 72 h, read-out: The results of antibiotic drug inhibiting cancer cell lines (cell viability analysis), A375, A375, repeated experiment); 52.2% in data set [11] (setting [29]). Besides, in data set [20], the viability was found to be 89.7%.
